Among the data in publication PMC12065899 (Communications Biology, 2025) are Ki values, retold here.

Molecules are shown by their SMILES. Changes are numbered by the printed parent chain.

Holding throughout (format): biochemical
Assay [1] deals with T1, HvExoI (β-D-glucan glucohydrolase) (Hordeum vulgare, UniProt Q9XEI3).
T1 sequence (Q9XEI3 26-630): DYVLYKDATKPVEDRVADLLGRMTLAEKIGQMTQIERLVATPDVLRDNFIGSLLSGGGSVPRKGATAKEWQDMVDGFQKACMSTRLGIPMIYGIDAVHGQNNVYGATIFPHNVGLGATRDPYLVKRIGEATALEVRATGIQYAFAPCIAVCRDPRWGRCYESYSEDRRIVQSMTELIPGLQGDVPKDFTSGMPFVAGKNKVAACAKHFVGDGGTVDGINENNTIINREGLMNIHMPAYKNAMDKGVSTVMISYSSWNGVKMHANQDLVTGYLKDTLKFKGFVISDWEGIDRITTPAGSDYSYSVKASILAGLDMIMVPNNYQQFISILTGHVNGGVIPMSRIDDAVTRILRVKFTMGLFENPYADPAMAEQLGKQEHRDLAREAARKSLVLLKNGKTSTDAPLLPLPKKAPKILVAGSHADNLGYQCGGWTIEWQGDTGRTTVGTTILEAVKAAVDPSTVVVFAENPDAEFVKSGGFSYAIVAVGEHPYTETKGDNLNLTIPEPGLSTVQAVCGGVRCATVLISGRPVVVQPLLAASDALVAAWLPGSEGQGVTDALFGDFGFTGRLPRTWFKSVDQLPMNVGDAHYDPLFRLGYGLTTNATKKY
The assay can be described thus: competitive inhibition kinetics with 4NP-Glc.

The target in assay [2] is T2, HvExoI (β-D-glucan glucohydrolase) (Hordeum vulgare, UniProt Q9XEI3, E245A).
T2 sequence (Q9XEI3 26-630 E245A): T1 sequence (Q9XEI3 26-630) with E220A
The assay can be described thus: X-ray crystal structure.

The target of assay [3] is T2, HvExoI (β-D-glucan glucohydrolase). The assay can be described thus: competitive inhibition kinetics with 4NP-Glc.

What is called Ki is a measure of affinity in units of concentration, obtained from inhibition or displacement. High values mean lower affinity, low ones higher affinity. Regarding `O=[N+]([O-])c1ccc(O[C@H]2O[C@H](CO)[C@@H](O)[C@H](O)[C@H]2F)c([N+](=O)[O-])c1` [2F-DNPGlc, 2,4-dinitrophenyl 2-deoxy-2-fluro-α-D-glucopyranoside], the Ki in assay [1] and in assay [2] was 500 nM each time.
`O=C1O[C@H](CO)[C@@H](O)[C@H](O)[C@H]1O` [glucono-δ-lactone] gave a Ki in assay [3] of 103000 nM.
